Legend:
human GSK3α = molecular target: T1, human GSK3α (Homo sapiens, UniProt P49840); assay: In vitro enzymatic activity assay, GSK3α; type: biochemical; conditions: 1.0 mM ATP, 1.0 μM peptide substrate, 120 min, 25° C, read-out: Enzyme GSK3α (IC50)
T1 construct: Full length human GSK3α or GSK3B expressed as N-terminal GST fusion proteins; GST (N); purchased Carna Biosciences (Japan); host or cells: baculovirus host

GSK3A = molecular target: T2, GSK3A (Homo sapiens, UniProt P49840); assay: NanoBRET cellular target engagement assay, Nanoluc-GSK3A in HEK293 cells; type: cell-based; conditions: NanoBRET GSK3α IC50, HEK293 cells, tracer K-8, 2 hours, 37° C
T2 construct: expressed in transfected cells

GSK3B [1] = molecular target: T3, GSK3B (Homo sapiens, UniProt P49841); assay: NanoBRET cellular target engagement assay, Nanoluc-GSK3B in HEK293 cells; type: cell-based; design: expressed in transfected cells; conditions: NanoBRET GSK3β IC50, HEK293 cells, tracer K-8, 2 hours, 37° C
GSK3B [2] = molecular target: T3, GSK3B; assay: In vitro enzymatic activity assay, GSK3β; type: biochemical; design: Full length human GSK3α or GSK3B expressed as N-terminal GST fusion proteins; GST (N); purchased Carna Biosciences (Japan); host or cells: baculovirus host; conditions: 1.0 mM ATP, 1.0 μM peptide substrate, 120 min, 25° C, read-out: Enzyme GSK3β (IC50)

T3 sequence (P49841 whole entry, the tested form may be a part): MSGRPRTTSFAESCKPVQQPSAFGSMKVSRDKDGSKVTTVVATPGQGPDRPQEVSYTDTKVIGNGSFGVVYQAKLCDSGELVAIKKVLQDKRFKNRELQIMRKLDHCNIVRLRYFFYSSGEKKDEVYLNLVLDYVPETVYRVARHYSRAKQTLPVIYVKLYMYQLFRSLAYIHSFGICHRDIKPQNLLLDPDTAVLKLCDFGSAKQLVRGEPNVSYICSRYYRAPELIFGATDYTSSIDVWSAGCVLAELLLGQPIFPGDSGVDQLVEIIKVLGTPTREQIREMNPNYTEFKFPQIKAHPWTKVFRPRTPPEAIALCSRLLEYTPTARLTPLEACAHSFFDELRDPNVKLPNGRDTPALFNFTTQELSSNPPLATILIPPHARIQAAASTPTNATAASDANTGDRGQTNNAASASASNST
T1 sequence (P49840 whole entry, the tested form may be a part): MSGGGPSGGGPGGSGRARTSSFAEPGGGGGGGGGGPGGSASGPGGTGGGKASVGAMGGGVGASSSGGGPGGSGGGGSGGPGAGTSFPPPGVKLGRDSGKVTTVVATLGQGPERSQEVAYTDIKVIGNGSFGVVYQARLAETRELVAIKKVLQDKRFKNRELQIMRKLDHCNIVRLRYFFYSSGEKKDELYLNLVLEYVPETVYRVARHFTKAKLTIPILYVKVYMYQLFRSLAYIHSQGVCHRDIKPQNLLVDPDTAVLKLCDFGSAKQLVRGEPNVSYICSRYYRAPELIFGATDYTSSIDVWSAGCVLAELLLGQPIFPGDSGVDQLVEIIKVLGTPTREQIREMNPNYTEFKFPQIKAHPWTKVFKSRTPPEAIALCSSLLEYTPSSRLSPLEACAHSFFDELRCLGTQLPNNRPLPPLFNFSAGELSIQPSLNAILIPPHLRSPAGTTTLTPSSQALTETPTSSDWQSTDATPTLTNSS
T2 sequence (P49840 whole entry): as the sequence (P49840 whole entry, the tested form may be a part) above

| IC50 (human GSK3α) [nM] | IC50 (GSK3A) [nM] | IC50 (GSK3B [1]) [nM] | IC50 (GSK3B [2]) [nM] | Structure (SMILES) |
| --- | --- | --- | --- | --- |
| 4.9 | 2.7 | 163 | 296 | CCCOc1cc(C)c(-n2cnc(N)c(C(=O)Nc3cncc([C@H]4CCCCN4)c3)c2=O)c(C)c1 [Example 125, (R)-4-amino-1-(2,6-dimethyl-4-propoxyphenyl)-6-oxo-N-(5-(piperidin-2-yl)pyridin-3-yl)-1,6-dihydropyrimidine-5-carboxamide] |
| 18.6 | 9.6 | 650 | 767 | CCCOc1cc(C)c(-n2cnc(N)c(C(=O)Nc3cncc(CNC)c3)c2=O)c(C)c1 [Example 127, 4-amino-1-(2,6-dimethyl-4-propoxyphenyl)-N-(5-((methylamino)methyl)pyridin-3-yl)-6-oxo-1,6-dihydropyrimidine-5-carboxamide] |
| 4.9 | 2.3 | 159 | 202 | CCOCc1cc(C)c(-n2cnc(N)c(C(=O)Nc3cncc([C@H]4CCCCN4)c3)c2=O)c(C)c1 [Example 131, (R)-4-amino-1-(4-(ethoxymethyl)-2,6-dimethylphenyl)-6-oxo-N-(5-(piperidin-2-yl)pyridin-3-yl)-1,6-dihydropyrimidine-5-carboxamide] |
| 9.7 | 6.1 | 350 | 508 | CCOc1cc(Cl)c(-n2cnc(N)c(C(=O)Nc3cncc([C@@H]4CCCCN4)c3)c2=O)c(Cl)c1 [Example 133, (S)-4-amino-1-(2,6-dichloro-4-ethoxyphenyl)-6-oxo-N-(5-(piperidin-2-yl)pyridin-3-yl)-1,6-dihydropyrimidine-5-carboxamide] |
| 3 | 1 | 96.2 | 129 | Cc1cc(C)c(-n2cnc(N)c(C(=O)Nc3cncc([C@H]4CCCCN4)c3)c2=O)c(C)c1 [Example 145, (R)-4-amino-1-mesityl-6-oxo-N-(5-(piperidin-2-yl)pyridin-3-yl)-1,6-dihydropyrimidine-5-carboxamide] |
| 13.4 | 8.6 | 519 | 552 | Nc1ncn(-c2c(Cl)cc(F)cc2Cl)c(=O)c1C(=O)Nc1cncc([C@@H]2CCCN2)c1 [Example 149, (S)-4-amino-1-(2,6-dichloro-4-fluorophenyl)-6-oxo-N-(5-(pyrrolidin-2-yl)pyridin-3-yl)-1,6-dihydropyrimidine-5-carboxamide] |
| 2.7 | 2.4 | 174 | 120 | Nc1ncn(-c2c(Cl)cncc2Cl)c(=O)c1C(=O)Nc1cncc([C@H]2CCCCN2)c1 [Example 152, (R)-4-amino-1-(3,5-dichloropyridin-4-yl)-6-oxo-N-(5-(piperidin-2-yl)pyridin-3-yl)-1,6-dihydropyrimidine-5-carboxamide] |
| 34.9 | 8.1 | 957 | 1250 | CCNCc1cncc(NC(=O)c2c(N)ncn(-c3c(C)cc(CC(F)F)cc3C)c2=O)c1 [Example 156, 4-amino-1-(4-(2,2-difluoroethyl)-2,6-dimethylphenyl)-N-(5-((ethylamino)methyl)pyridin-3-yl)-6-oxo-1,6-dihydropyrimidine-5-carboxamide] |

Further lines, the compound ahead of its results:

| Structure (SMILES) | IC50 (human GSK3α) [nM] | IC50 (GSK3A) [nM] | IC50 (GSK3B [1]) [nM] | IC50 (GSK3B [2]) [nM] |
| --- | --- | --- | --- | --- |
| CCCOc1cc(Cl)c(-n2cnc(N)c(C(=O)Nc3cncc(CNCC)c3)c2=O)c(Cl)c1 [Example 86, 4-amino-1-(2,6-dichloro-4-propoxyphenyl)-N-(5-((ethylamino)methyl)pyridin-3-yl)-6-oxo-1,6-dihydropyrimidine-5-carboxamide] | 6.6 | 4.2 | 321 | 414 |
| CCOc1cc(C)c(-n2cnc(N)c(C(=O)Nc3cncc([C@H]4CCCCN4)c3)c2=O)c(C)c1 [Example 91, (R)-4-amino-1-(4-ethoxy-2,6-dimethylphenyl)-6-oxo-N-(5-(piperidin-2-yl)pyridin-3-yl)-1,6-dihydropyrimidine-5-carboxamide] | 6 | 3.7 | 201 | 299 |
| CCC[C@@H](N)c1cncc(NC(=O)c2c(N)ncn(-c3c(C)cc(OCC)cc3C)c2=O)c1 [Example 94, (R)-4-amino-N-(5-(1-aminobutyl)pyridin-3-yl)-1-(4-ethoxy-2,6-dimethylphenyl)-6-oxo-1,6-dihydropyrimidine-5-carboxamide] | 7.6 | 6.6 | 384 | 598 |
| Cc1cc(C(F)F)cc(C)c1-n1cnc(N)c(C(=O)Nc2cncc([C@H]3CCCCN3)c2)c1=O [Example 97, (R)-4-amino-1-(4-(difluoromethyl)-2,6-dimethylphenyl)-6-oxo-N-(5-(piperidin-2-yl)pyridin-3-yl)-1,6-dihydropyrimidine-5-carboxamide] | 3.6 | 1.8 | 121 | 230 |
| COCc1cc(C)c(-n2cnc(N)c(C(=O)Nc3cncc([C@H]4CCCCN4)c3)c2=O)c(C)c1 [Example 98, (R)-4-amino-1-(4-(methoxymethyl)-2,6-dimethylphenyl)-6-oxo-N-(5-(piperidin-2-yl)pyridin-3-yl)-1,6-dihydropyrimidine-5-carboxamide] | 4.6 | 2.5 | 134 | 254 |
| CNCc1cncc(NC(=O)c2c(N)ncn(-c3c(C)cc(COC)cc3C)c2=O)c1 [Example 99, 4-amino-1-(4-(methoxymethyl)-2,6-dimethylphenyl)-N-(5-((methylamino)methyl)pyridin-3-yl)-6-oxo-1,6-dihydropyrimidine-5-carboxamide] | 20.5 | 7.4 | 565 | 1020 |
| CNCc1cncc(NC(=O)c2c(N)ncn(-c3c(C)cc(C(F)F)cc3C)c2=O)c1 [Example 105, 4-amino-1-(4-(difluoromethyl)-2,6-dimethylphenyl)-N-(5-((methylamino)methyl)pyridin-3-yl)-6-oxo-1,6-dihydropyrimidine-5-carboxamide] | 19.3 | 7.2 | 577 | 1130 |
| CCC[C@@H](N)c1cncc(NC(=O)c2c(N)ncn(-c3c(C)cc(C(F)F)cc3C)c2=O)c1 [Example 106, (R)-4-amino-N-(5-(1-aminobutyl)pyridin-3-yl)-1-(4-(difluoromethyl)-2,6-dimethylphenyl)-6-oxo-1,6-dihydropyrimidine-5-carboxamide] | 4.5 | 2.8 | 195 | 279 |
| Nc1ncn(-c2c(Cl)cc(OC(F)(F)F)cc2Cl)c(=O)c1C(=O)Nc1cncc([C@@H]2CCCN2)c1 [Example 109, (S)-4-amino-1-(2,6-dichloro-4-(trifluoromethoxy)phenyl)-6-oxo-N-(5-(pyrrolidin-2-yl)pyridin-3-yl)-1,6-dihydropyrimidine-5-carboxamide] | 15.6 | 8.4 | 567 | 803 |
| Cc1cc(OC(F)(F)F)cc(C)c1-n1cnc(N)c(C(=O)Nc2cncc([C@H]3CCCCN3)c2)c1=O [Example 110, (R)-4-amino-1-(2,6-dimethyl-4-(trifluoromethoxy)phenyl)-6-oxo-N-(5-(piperidin-2-yl)pyridin-3-yl)-1,6-dihydropyrimidine-5-carboxamide] | 9.9 | 3.7 | 335 | 568 |
| Nc1ncn(-c2c(Cl)cc(C(F)(F)F)cc2Cl)c(=O)c1C(=O)Nc1cncc([C@@H]2CCCN2)c1 [Example 118, (S)-4-amino-1-(2,6-dichloro-4-(trifluoromethyl)phenyl)-6-oxo-N-(5-(pyrrolidin-2-yl)pyridin-3-yl)-1,6-dihydropyrimidine-5-carboxamide] | 11.2 | 9.4 | 566 | 450 |
| Nc1ncn(-c2c(Cl)cc(C(F)(F)F)cc2Cl)c(=O)c1C(=O)Nc1cncc([C@@H]2CCCCN2)c1 [Example 119, (S)-4-amino-1-(2,6-dichloro-4-(trifluoromethyl)phenyl)-6-oxo-N-(5-(piperidin-2-yl)pyridin-3-yl)-1,6-dihydropyrimidine-5-carboxamide] | 8.1 | 8.1 | 502 | 414 |
| NCc1cncc(NC(=O)c2c(N)ncn(-c3c(Cl)cc(C(F)(F)F)cc3Cl)c2=O)c1 [Example 120, 4-amino-N-(5-(aminomethyl)pyridin-3-yl)-1-(2,6-dichloro-4-(trifluoromethyl)phenyl)-6-oxo-1,6-dihydropyrimidine-5-carboxamide] | 9.4 | 4.4 | 274 | 442 |
| CN(C)c1cc(Cl)c(-n2cnc(N)c(C(=O)Nc3cncc([C@@H]4CCCCN4)c3)c2=O)c(Cl)c1 [Example 123, (S)-4-amino-1-(2,6-dichloro-4-(dimethylamino)phenyl)-6-oxo-N-(5-(piperidin-2-yl)pyridin-3-yl)-1,6-dihydropyrimidine-5-carboxamide] | 4.8 | 3.3 | 203 | 266 |
| CC(C)Oc1cc(Cl)c(-n2cnc(N)c(C(=O)Nc3cncc([C@@H]4CCCCN4)c3)c2=O)c(Cl)c1 [Example 124, (S)-4-amino-1-(2,6-dichloro-4-isopropoxyphenyl)-6-oxo-N-(5-(piperidin-2-yl)pyridin-3-yl)-1,6-dihydropyrimidine-5-carboxamide] | 7 | 7.8 | 404 | 393 |

Reference: patent US20260327191A1, “GSK3a INHIBITORS AND METHODS OF USE THEREOF” (Blueprint Medicines Corporation, priority 2023, published 2026)
